Experimental data as given in patent publication US4478840A, “Appetite suppressing compositions and methods” (E. I. Du Pont de Nemours and Company, priority 1983, dated 1984).

Assays:
[1] = Analgesic/narcotic antagonist property; settings: stated in words, no test described
Female CF1 mice = assay: Anorexia test, oral dose route (milk consumption of fasted mice); format: in vivo, mouse; settings: for ED50: Mus musculus, oral, female CF1 mice fasted 17 to 21 hours, dose at which treated mice would consume 50% as much milk as controls, milk 1/2 h after dose, 30 min count; for food intake in mice: summary statement on Table I
Method: Female CF1 mice, which had been fasted for 17 to 21 hours, were dosed orally with the test compound (ten or more mice per dose). One-half hour later, each mouse was transferred to an individual compartment (13.3 cm×12.7 cm×12.7 cm) with a 0.64 cm×0.64 cm wire mesh floor. Inside each compartment was a brass bar (13 cm×1.2 cm×1.2 cm) in the top of which were ten shallow, round spot depressions (0.8 cm diameter). Each depression contained 0.05 ml of 50% sweetened condensed milk.
Thirty minutes after the mice were transferred into the compartments, the number of milk spots each mouse had consumed was counted. Fractions of spots consumed also were estimated and counted. The percent anorexigenic effect was estimated by comparison of the mean number of spots of milk consumed per mouse at a given dose with the mean number of spots consumed per vehicle-treated control mouse. Dose-response curves were plotted and from these the ED50%, the dose at which treated mice would be expected to consume 50% as much milk as control mice, was calculated.

Male CF1 mice = assay: Anorexia test, subcutaneous dose route (milk consumption of fasted mice); format: in vivo; settings: Mus musculus, sc, male CF1 mice fasted 17 to 21 hours, dose at which treated mice would consume 50% as much milk as controls, milk 7 1/2 to 15 min after dose, 10 min count
Method: Male CF1 mice, which had been fasted for 17 to 21 hours, were dosed subcutaneously with the test compound (20 mice per dose) and placed into an individual compartment (13.3 cm×12.7 cm×12.7 cm) with a 0.64 cm×0.64 cm wire mesh floor. 71/2 to 15 minutes later a black Lucite bar (13 cm×1.2 cm×1.2 cm) in the top of which were ten shallow round spot depressions (0.8 cm diameter) was inserted into each compartment. Each depression contained 0.05 ml of 50% sweetened condensed milk.
Ten minutes after the milk was presented to the mice, the number of milk spots each mouse had consumed was counted. Fractions of spots consumed also were estimated and counted. Dose-response curves were plotted and from these the ED50%, the dose at which treated mice would be expected to consume 50% as much milk as control mice, was calculated.

rats = settings: sweetened Enfamil baby formula; subcutaneous; cited from earlier work
mammals = settings: oral; cited from earlier work
food-deprived rats = settings: cited from earlier work
food-deprived mice = settings: cited from earlier work

Oc1ccc2c3c1O[C@H]1CCC[C@@]4(O)[C@@H](C2)N(CC2CCC2)CC[C@]314 [17-cyclobutylmethyl-4,5α-epoxymorphinan-3,14-diol]
analgesic/narcotic antagonist property [1]: mixed analgesic/narcotic antagonist

Oc1ccc2c3c1O[C@H]1CCC[C@@]4(O)[C@@H](C2)N(CC2CC2)CC[C@]314 [17-cyclopropylmethyl-4,5α-epoxymorphinan-3,14-diol]
analgesic/narcotic antagonist property [1]: narcotic antagonist

Cl.Oc1ccc2c3c1O[C@H]1CCC[C@@]4(O)[C@@H](C2)N(CC2CC2)CC[C@]314 [Example 1, 17-Cyclopropylmethyl-4,5α-epoxymorphinan-3,14-diol, Hydrochloride]
ED50 (Female CF1 mice): 2.5 mg/kg
food intake in mice (Female CF1 mice): decreased food intake

Cl.Oc1ccc2c3c1O[C@H]1CCC[C@@]4(O)[C@@H](C2)N(CC2CCC2)CC[C@]314 [Example 2, 17-Cyclobutylmethyl-4,5α-epoxymorphinan-3,14-diol, Hydrochloride]
ED50 (Female CF1 mice): 84 mg/kg
food intake in mice (Female CF1 mice): decreased food intake
ED50 (Male CF1 mice): 3.2 mg/kg

CCNC(C)Cc1cccc(C(F)(F)F)c1 (centres unmarked) [Fenfluramine]
ED50 (Female CF1 mice): 13.5 mg/kg
ED50 (Male CF1 mice): 7.6 mg/kg

O=C1CC[C@@]2(O)[C@H]3Cc4ccc(O)c5c4[C@@]2(CCN3CC2CC2)[C@H]1O5 [Naltrexone, (-)-17-cyclopropylmethyl-4,5α-epoxy-3,14-dihydroxymorphinan-6-one]
fluid intake of rats (rats): reduced
appetite suppression (mammals): appetite suppression
ED50 (Female CF1 mice): 3 mg/kg
ED50 (Male CF1 mice): 0.4 mg/kg

C=CCN1CC[C@]23c4c5ccc(O)c4O[C@H]2[C@@H](O)C=C[C@H]3[C@H]1C5 [nalorphine, N-allylnormorphine]
fluid intake of rats (rats): reduced

C=CCN1CC[C@]23c4c5ccc(O)c4O[C@H]2C(=O)CC[C@@]3(O)[C@H]1C5 [naloxone, N-allyl-14-hydroxy-7,8-dihydronormorphinone]
eating by food-deprived rats (food-deprived rats): suppresses eating
eating by food-deprived mice (food-deprived mice): not by food-deprived mice
fluid intake of rats (rats): reduced
